Values of other authors in patent US20020045664A1, “Estrogen mimetics lacking reproductive tract effects” (The University of Georgia Research Foundation, Inc, priority 1999, published 2002).

Legend:
MCF-7 cells = conditions: cited from earlier work
[1] = system: rat uterus (uterine weight gain); design: Rat Uterotrophic Assay % Efficacy: concentration or dose not given beside the values; conditions: cited from earlier work; for Rat Uterotrophic Assay ED50: dose at which uterine weight gain was 50% maximal; for Rat Uterotrophic Assay % Efficacy: in vivo

## CC/C(=C(\c1ccccc1)c1ccc(OCCN(C)C)cc1)c1ccccc1 [trans-tamoxifen, (Z)-2-[4-(1,2-diphenyl-1-butenyl)phenoxy]-N,N-dimethylethanamine]
MCF-7 cells
  MCF-7 Cell Growth % Efficacy: 21%
[1]
  Rat Uterotrophic Assay ED50: 10 µg/day
  Rat Uterotrophic Assay % Efficacy: 12%

## CC/C(=C(/c1ccccc1)c1ccc(OCCN(C)C)cc1)c1ccccc1 [cis-tamoxifen]
MCF-7 cells
  MCF-7 Cell Growth % Efficacy: 100%
[1]
  Rat Uterotrophic Assay ED50: 40 µg/day
  Rat Uterotrophic Assay % Efficacy: 52%
